The text below walks through data of patent US12686673B2 (Blueprint Medicines Corporation, priority 2020, dated 2026).

Molecules are shown by their SMILES. Counter-ions that a name gives are not always drawn. Like-named read-outs stand apart in the source and are kept apart here.

Format in all cases: cell-based
Assay [1] concerns the target HER2 (A775_G776insYVMA) expressing Ba/F3 stable cell line (Homo sapiens, UniProt P04626, DUP772-775, cells depend on it). Briefly: Cellular proliferation (Alamar Blue) assay, HER2 A775_G776insYVMA Ba/F3. The conditions noted are these: 72 hr, read-out: YVMA IC50. An outline of the steps:
(§1)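 Proliferation of mutant-dependent Ba/F3 lines is measured by Alamar Blue reduction over 3 hours, following a 72 hr incubation with test compound spanning 10-0.0005 μM final in threefold dilutions. Cells go in at 15,000 per well in RPMI containing 10% FBS the day before dosing.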
On the technique in general: Alamar Blue is a resazurin reagent that responds to reducing activity.

For assay [2], the system named is A431 cells. In words: Cellular proliferation (Alamar Blue) assay, A431.
In assay [3] the target is EGFR(D770_N771insSVD) expressing Ba/F3 stable cell line (Homo sapiens, UniProt P00533, DUP768-770, cells depend on it). Briefly: Cellular proliferation (Alamar Blue) assay, EGFR D770_N771insSVD Ba/F3. The settings on record: 72 hr, read-out: D770 IC50. The gist of the method:
as §1

Assay [4] addresses EGFR (A767_dupASV) expressing Ba/F3 stable cell line (Homo sapiens, UniProt P00533, DUP767-769, cells depend on it). In words: Cellular proliferation (Alamar Blue) assay, EGFR A767_dupASV Ba/F3. The conditions noted are these: 72 hr, read-out: A767 IC50. The gist of the method:
as §1

[5] abbreviates: Homo sapiens, A-431; A431 cells, 72 hr, Alamar Blue; read-out: A431 IC50.
The mark [6] stands for this setting: Homo sapiens, A-431; A431 cells, Alamar Blue, 72 hr; read-out: A431 IC50.

Chain of HER2 (A775_G776insYVMA) expressing Ba/F3 stable cell line (P04626 with tags, fused parts or gaps DUP772-775): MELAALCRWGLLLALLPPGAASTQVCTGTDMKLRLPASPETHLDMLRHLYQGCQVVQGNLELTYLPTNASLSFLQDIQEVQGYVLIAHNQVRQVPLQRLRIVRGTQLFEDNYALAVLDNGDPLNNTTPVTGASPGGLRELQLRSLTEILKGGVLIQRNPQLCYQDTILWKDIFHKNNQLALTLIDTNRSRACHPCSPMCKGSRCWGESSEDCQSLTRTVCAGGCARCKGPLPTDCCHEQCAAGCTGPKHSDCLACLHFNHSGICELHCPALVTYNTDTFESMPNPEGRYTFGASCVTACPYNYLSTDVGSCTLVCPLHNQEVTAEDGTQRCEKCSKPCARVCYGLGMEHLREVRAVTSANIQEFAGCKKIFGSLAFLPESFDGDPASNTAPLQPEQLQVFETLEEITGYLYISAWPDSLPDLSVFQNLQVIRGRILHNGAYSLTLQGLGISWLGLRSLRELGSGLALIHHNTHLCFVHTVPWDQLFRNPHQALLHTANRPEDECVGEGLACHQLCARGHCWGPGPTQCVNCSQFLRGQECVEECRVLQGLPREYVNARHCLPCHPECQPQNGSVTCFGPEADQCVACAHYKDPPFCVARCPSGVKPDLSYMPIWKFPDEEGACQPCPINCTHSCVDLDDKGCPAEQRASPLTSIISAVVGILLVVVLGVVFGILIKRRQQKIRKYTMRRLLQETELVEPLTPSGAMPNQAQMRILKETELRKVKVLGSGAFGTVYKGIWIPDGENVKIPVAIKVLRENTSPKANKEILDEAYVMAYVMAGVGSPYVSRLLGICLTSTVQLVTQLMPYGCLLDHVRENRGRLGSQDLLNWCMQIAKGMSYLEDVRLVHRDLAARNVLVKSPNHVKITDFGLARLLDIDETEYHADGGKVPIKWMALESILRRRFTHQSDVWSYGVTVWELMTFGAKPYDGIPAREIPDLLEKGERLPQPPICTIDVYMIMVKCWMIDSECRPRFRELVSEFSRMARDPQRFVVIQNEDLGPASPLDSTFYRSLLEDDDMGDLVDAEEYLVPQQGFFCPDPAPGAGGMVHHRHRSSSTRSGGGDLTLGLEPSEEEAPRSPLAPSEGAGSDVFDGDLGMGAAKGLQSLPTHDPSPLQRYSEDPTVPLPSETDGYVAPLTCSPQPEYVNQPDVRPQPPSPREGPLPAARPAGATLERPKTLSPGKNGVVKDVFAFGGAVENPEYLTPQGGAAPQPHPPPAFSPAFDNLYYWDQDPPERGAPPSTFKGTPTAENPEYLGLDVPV
Chain of EGFR(D770_N771insSVD) expressing Ba/F3 stable cell line (P00533 with tags, fused parts or gaps DUP768-770): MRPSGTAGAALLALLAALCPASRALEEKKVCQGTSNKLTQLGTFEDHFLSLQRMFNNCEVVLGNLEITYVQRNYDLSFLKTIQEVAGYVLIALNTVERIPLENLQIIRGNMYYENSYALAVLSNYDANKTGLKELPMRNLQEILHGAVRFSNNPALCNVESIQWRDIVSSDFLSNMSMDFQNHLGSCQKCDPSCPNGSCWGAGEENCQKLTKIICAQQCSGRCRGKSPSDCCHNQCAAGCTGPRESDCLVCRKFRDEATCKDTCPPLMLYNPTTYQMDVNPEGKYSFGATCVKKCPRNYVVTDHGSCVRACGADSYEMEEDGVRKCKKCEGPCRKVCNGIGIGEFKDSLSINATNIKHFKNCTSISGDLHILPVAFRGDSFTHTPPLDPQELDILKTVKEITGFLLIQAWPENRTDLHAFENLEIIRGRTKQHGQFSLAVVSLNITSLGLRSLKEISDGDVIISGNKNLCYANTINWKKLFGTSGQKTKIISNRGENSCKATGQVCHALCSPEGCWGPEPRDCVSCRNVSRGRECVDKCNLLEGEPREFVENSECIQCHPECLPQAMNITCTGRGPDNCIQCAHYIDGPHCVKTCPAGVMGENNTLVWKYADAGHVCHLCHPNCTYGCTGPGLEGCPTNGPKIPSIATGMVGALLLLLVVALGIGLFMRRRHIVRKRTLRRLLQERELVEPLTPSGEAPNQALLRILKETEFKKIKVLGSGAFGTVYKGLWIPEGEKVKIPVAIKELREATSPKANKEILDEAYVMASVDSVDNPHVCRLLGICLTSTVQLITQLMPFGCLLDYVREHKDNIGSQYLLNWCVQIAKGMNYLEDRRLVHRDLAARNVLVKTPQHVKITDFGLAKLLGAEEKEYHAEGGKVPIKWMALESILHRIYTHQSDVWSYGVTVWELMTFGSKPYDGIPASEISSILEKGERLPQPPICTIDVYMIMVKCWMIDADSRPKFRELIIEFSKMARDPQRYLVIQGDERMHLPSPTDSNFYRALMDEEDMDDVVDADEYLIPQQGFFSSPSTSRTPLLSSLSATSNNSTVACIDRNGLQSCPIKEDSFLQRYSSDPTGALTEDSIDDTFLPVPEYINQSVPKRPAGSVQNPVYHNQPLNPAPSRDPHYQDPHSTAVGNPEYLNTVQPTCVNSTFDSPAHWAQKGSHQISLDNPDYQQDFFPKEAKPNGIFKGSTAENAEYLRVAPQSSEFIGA
Chain of EGFR (A767_dupASV) expressing Ba/F3 stable cell line (P00533 with tags, fused parts or gaps DUP767-769): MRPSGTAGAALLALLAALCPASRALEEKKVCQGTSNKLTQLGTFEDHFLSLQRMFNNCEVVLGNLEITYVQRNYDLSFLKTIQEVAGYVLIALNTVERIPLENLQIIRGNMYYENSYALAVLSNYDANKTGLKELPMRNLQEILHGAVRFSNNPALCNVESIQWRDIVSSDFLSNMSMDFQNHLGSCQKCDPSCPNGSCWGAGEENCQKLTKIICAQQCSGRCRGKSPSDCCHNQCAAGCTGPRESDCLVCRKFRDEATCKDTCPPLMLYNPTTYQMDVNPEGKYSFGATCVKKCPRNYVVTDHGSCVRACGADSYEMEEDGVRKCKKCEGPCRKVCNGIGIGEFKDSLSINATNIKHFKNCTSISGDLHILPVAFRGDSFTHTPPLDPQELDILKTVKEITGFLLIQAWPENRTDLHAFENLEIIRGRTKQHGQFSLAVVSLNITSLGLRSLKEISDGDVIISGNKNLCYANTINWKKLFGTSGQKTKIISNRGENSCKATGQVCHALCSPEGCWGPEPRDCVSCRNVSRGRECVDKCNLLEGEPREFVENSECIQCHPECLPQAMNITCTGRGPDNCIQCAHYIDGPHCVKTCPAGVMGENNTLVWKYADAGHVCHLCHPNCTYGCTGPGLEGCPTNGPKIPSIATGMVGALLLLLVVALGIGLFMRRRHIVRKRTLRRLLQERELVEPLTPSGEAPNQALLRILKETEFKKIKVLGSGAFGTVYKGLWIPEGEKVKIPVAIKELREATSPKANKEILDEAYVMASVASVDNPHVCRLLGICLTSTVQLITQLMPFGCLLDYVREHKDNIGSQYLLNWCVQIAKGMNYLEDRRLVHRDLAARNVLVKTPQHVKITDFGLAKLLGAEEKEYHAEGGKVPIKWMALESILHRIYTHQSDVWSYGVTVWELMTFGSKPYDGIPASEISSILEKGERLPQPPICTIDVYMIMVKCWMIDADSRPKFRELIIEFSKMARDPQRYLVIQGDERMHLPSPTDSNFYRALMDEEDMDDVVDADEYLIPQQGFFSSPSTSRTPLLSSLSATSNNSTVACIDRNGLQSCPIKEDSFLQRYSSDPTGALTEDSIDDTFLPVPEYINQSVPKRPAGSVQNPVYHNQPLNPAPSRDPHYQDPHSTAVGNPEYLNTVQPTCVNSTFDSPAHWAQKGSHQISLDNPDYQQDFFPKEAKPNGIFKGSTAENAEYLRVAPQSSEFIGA

A word on the IC50: it is the point on the concentration scale where inhibition reaches its midpoint. As to `C=CC(=O)Nc1ccc(F)c(Nc2nc(Nc3cnn(C)c3)ncc2-c2ccc(C(F)(F)C(F)(F)F)cc2)c1` [Compound 296, N-(4-fluoro-3-((2-((1-methyl-1H-pyrazol-4-yl)amino)-5-(4-(perfluoroethyl)phenyl)pyrimidin-4-yl)amino)phenyl)acrylamide], the GI50 is 0.971 µM in assay [1], 0.084 µM in assay [3] and 0.106 µM in assay [4]. Further, the IC50 in assay [2] (setting [5]) stood at 0.032 µM.

As to `C=CC(=O)Nc1ccc(F)c(Nc2nc(Nc3cnn(C)c3)ncc2-c2ccc(Oc3cccc(F)c3)cc2)c1` [Compound 300, N-(4-fluoro-3-((5-(4-(3-fluorophenoxy)phenyl)-2-((1-methyl-1H-pyrazol-4-yl)amino)pyrimidin-4-yl)amino)phenyl)acrylamide], the GI50 was found to be 9.74 µM in assay [1], 1.16 µM in assay [3] and 0.289 µM in assay [4]. In addition, the IC50 in assay [2] (setting [5]) was 0.229 µM.

In the case of `C=CC(=O)Nc1cccc(Nc2nc(Nc3cnn(C)c3)ncc2-c2ccc(Br)cc2)c1F` [Compound 202, N-(3-((5-(4-bromophenyl)-2-((1-methyl-1H-pyrazol-4-yl)amino)pyrimidin-4-yl)amino)-2-fluorophenyl)acrylamide], the GI50 worked out at 0.217 µM in assay [1], 0.035 µM in assay [3] and 0.034 µM in assay [4]. Besides, in assay [2] (setting [5]), the half-maximal inhibitory concentration (IC50) came to 0.044 µM.

On to `C=CC(=O)Nc1ccc(F)c(Nc2nc(Nc3cnn(CCO)c3)ncc2Cl)c1` [Compound 15, N-(3-((5-chloro-2-((1-(2-hydroxyethyl)-1H-pyrazol-4-yl)amino)pyrimidin-4-yl)amino)-4-fluorophenyl)acrylamide], for which the GI50 was found to be 0.543 µM in assay [1], 0.373 µM in assay [3] and 0.371 µM in assay [4]. Also, the IC50 in assay [2] (setting [6]) was found to be 4.22 µM.

Take `C=CC(=O)Nc1ccc(F)c(Nc2nc(Nc3cnn(C)c3)ncc2-c2cccc(Br)c2)c1` [Compound 201, N-(3-((5-(3-bromophenyl)-2-((1-methyl-1H-pyrazol-4-yl)amino)pyrimidin-4-yl)amino)-4-fluorophenyl)acrylamide]: the GI50 was found to be 0.424 µM in assay [1], 0.27 µM in assay [3] and 0.227 µM in assay [4]. In addition, the IC50 in assay [2] (setting [5]) was 1.52 µM.

As for `COC/C=C/C(=O)Nc1ccc(F)c(Nc2nc(Nc3cnn(C)c3)ncc2Cl)c1` [Compound 6, (E)-N-(3-((5-chloro-2-((1-methyl-1H-pyrazol-4-yl)amino)pyrimidin-4-yl)amino)-4-fluorophenyl)-4-methoxybut-2-enamide], the results for the GI50 in assay [1], in assay [3] and in assay [4] were 9.01 µM, > 10 µM and > 10 µM, respectively. In addition, the IC50 in assay [2] (setting [6]) is > 10 µM.

As for `CN(C)C/C=C/C(=O)Nc1cccc(Nc2nc(Nc3cnn(C)c3)ncc2NCc2ccccc2)c1` [Compound 33, (E)-N-(3-((5-(benzylamino)-2-((1-methyl-1H-pyrazol-4-yl)amino)pyrimidin-4-yl)amino)phenyl)-4-(dimethylamino)but-2-enamide], the GI50 in assay [1] was 3.03 µM; in assay [3], 2.98 µM; in assay [4] it was 4.07 µM. Also, the IC50 in assay [2] (setting [6]) was 4.01 µM.

On to `C=CC(=O)Nc1cc(F)cc(Nc2nc(Nc3cnn(C)c3)ncc2-c2ccc(CC(F)(F)F)cc2)c1` [Compound 295, N-(3-fluoro-5-((2-((1-methyl-1H-pyrazol-4-yl)amino)-5-(4-(2,2,2-trifluoroethyl)phenyl)pyrimidin-4-yl)amino)phenyl)acrylamide], for which the GI50 worked out at 0.21 µM in assay [1], 0.034 µM in assay [3] and 0.038 µM in assay [4]. In addition, the IC50 in assay [2] (setting [5]) amounted to 0.006 µM.

Regarding `C=CC(=O)Nc1ccc(F)c(Nc2nc(Nc3cnn(C)c3)ncc2-c2ccc(C3(C(F)(F)F)CC3)cc2)c1` [Compound 294, N-(4-fluoro-3-((2-((1-methyl-1H-pyrazol-4-yl)amino)-5-(4-(1-(trifluoromethyl)cyclopropyl)phenyl)pyrimidin-4-yl)amino)phenyl)acrylamide], the results for the GI50 in assay [1], in assay [3] and in assay [4] were 0.803 µM, 0.1 µM and 0.08 µM, respectively. In addition, in assay [2] (setting [5]), the IC50 turned out to be 0.045 µM.

With `C=CC(=O)Nc1ccc(C(=O)Nc2ccccc2)c(Nc2ccnc(Nc3cnn(C)c3)n2)c1` [Compound 164, 4-acrylamido-2-((2-((1-methyl-1H-pyrazol-4-yl)amino)pyrimidin-4-yl)amino)-N-phenylbenzamide], the GI50 in assay [1] was 9.49 µM; in assay [3], > 10 µM; in assay [4] it was > 10 µM. In assay [2] (setting [6]), the IC50 was > 10 µM.

Consider `C=CC(=O)Nc1ccc(F)c(Nc2nc(Nc3cn(CCO)nc3Cl)ncc2-c2ccc(C(F)(F)F)cc2)c1` [Compound 241, N-(3-((2-((3-chloro-1-(2-hydroxyethyl)-1H-pyrazol-4-yl)amino)-5-(4-(trifluoromethyl)phenyl)pyrimidin-4-yl)amino)-4-fluorophenyl)acrylamide], for which the GI50 in assay [1] is 0.343 µM; in assay [3], 0.105 µM; in assay [4] it was 0.146 µM. Moreover, in assay [2] (setting [5]), the IC50 was 0.105 µM.

`C=CC(=O)Nc1ccc(OC)c(Oc2nc(Nc3cnn(C)c3)ncc2Cl)c1` [Compound 172, N-[3-({5-chloro-2-[(1-methyl-1H-pyrazol-4-yl)amino]pyrimidin-4-yl}oxy)-4-methoxyphenyl] prop-2-enamide]: the GI50 in assay [1], in assay [3] and in assay [4] was > 10 µM throughout. In addition, the half-inhibitory concentration (IC50) in assay [2] (setting [6]) is > 10 µM.

`C=CC(=O)Nc1ccc(F)c(Nc2nc(Nc3cnn(C)c3)ncc2-c2ccc3ccoc3c2)c1` [Compound 299, N-(3-((5-(benzofuran-6-yl)-2-((1-methyl-1H-pyrazol-4-yl)amino)pyrimidin-4-yl)amino)-4-fluorophenyl)acrylamide]: the values for the GI50 in assay [1], in assay [3] and in assay [4] were 0.339 µM, 0.099 µM and 0.257 µM, respectively. Also, the IC50 in assay [2] (setting [5]) is 0.173 µM.

As for `C/C=C/C(=O)Nc1ccc(F)c(Nc2nc(Nc3cnn(C)c3)ncc2Cl)c1` [Compound 11, (E)-N-(3-((5-chloro-2-((1-methyl-1H-pyrazol-4-yl)amino)pyrimidin-4-yl)amino)-4-fluorophenyl)but-2-enamide], the results for the GI50 in assay [1], in assay [3] and in assay [4] were 4.72 µM, > 10 µM and > 10 µM, respectively. For the same molecule, the IC50 in assay [2] (setting [6]) was > 10 µM.

As for `C=CC(=O)Nc1ccc(F)c(Nc2cc(Nc3cnn(C)c3)ncc2-c2ccc(C(F)(F)F)cc2)c1` [Compound 210, N-[4-fluoro-3-({2-[(1-methyl-1H-pyrazol-4-yl)amino]-5-[4-(trifluoromethyl)phenyl]pyridin-4-yl}amino)phenyl]prop-2-enamide], the GI50 in assay [1] was 3.58 µM; in assay [3], 2.84 µM; in assay [4], 2.9 µM. For the same molecule, the IC50 in assay [2] (setting [5]) is 4.48 µM.

For the molecule `C=CC(=O)Nc1ccc(F)c(Nc2nc(Nc3cnn(C)c3)ncc2-c2ccc(C(C)(C)C)cc2)c1` [Compound 76, N-(3-((5-(4-(tert-butyl)phenyl)-2-((1-methyl-1H-pyrazol-4-yl)amino)pyrimidin-4-yl)amino)-4-fluorophenyl)acrylamide trifluoroacetate], the GI50 in assay [1] is 3.15 µM; in assay [3], 0.265 µM; in assay [4], 0.308 µM. In assay [2] (setting [6]), the IC50 turned out to be 0.156 µM.

For the molecule `C=CC(=O)Nc1cc(Br)cc(Nc2nc(Nc3cnn(C)c3)ncc2-c2ccc(CC(F)(F)F)cc2)c1` [Compound 302, N-(3-bromo-5-((2-((1-methyl-1H-pyrazol-4-yl)amino)-5-(4-(2,2,2-trifluoroethyl)phenyl)pyrimidin-4-yl)amino)phenyl)acrylamide], the GI50 came to 0.653 µM in assay [1], 0.099 µM in assay [3] and 0.067 µM in assay [4]. The IC50 in assay [2] (setting [5]) came to 0.012 µM.

Take `C=CC(=O)Nc1ccc(OC)c(Oc2nc(Nc3cnn(C4CCN(C)CC4)c3)ncc2Cl)c1` [Compound 170, N-(3-((5-chloro-2-((1-(1-methylpiperidin-4-yl)-1H-pyrazol-4-yl)amino)pyrimidin-4-yl)oxy)-4-methoxyphenyl)acrylamide]: the GI50 in assay [1] was 9.71 µM; in assay [3], > 10 µM; in assay [4], > 10 µM. The IC50 in assay [2] (setting [6]) was > 10 µM.

Turning to `C=CC(=O)Nc1ccc(F)c(Nc2nc(Nc3cnn(C)c3)ncc2C#CC2CC2)c1` [Compound 244, N-(3-{[5-(2-cyclopropylethynyl)-2-[(1-methyl-1H-pyrazol-4-yl)amino]pyrimidin-4-yl]amino}-4-fluorophenyl)prop-2-enamide], the GI50 was 2.25 µM in assay [1], 1.89 µM in assay [3] and 2.18 µM in assay [4]. For the same molecule, the IC50 in assay [2] (setting [5]) was determined as 1.81 µM.

On to `C=CC(=O)Nc1cccc(Nc2nc(Nc3cnn(C)c3)nnc2Cl)c1` [Compound 156, N-(3-((6-chloro-3-((1-methyl-1H-pyrazol-4-yl)amino)-1,2,4-triazin-5-yl)amino)phenyl)acrylamide], for which the GI50 in assay [1] is 1.52 µM; in assay [3], 1.89 µM; in assay [4], 2.44 µM. In addition, the IC50 in assay [2] (setting [6]) was 8.02 µM.

For the molecule `C=CC(=O)Nc1ccc(F)c(Nc2nc(Nc3cnn(C)c3)ncc2NC(=O)c2ccccc2)c1` [Compound 50, N-(4-((5-acrylamido-2-fluorophenyl)amino)-2-((1-methyl-1H-pyrazol-4-yl)amino)pyrimidin-5-yl)benzamide], the figures for the GI50 in assay [1], in assay [3] and in assay [4] were 8.62 µM, 1.73 µM and 1.47 µM, respectively. Also, in assay [2] (setting [6]), the IC50 is > 10 µM.
